Publication PMC8263924 (The Journal of General Physiology, 2021)
Where a chain is given by its changes, count along the chain named. Like-named read-outs stand apart in the source and are kept apart here.

Columns and labels:
Hv1 WT [1] = biological target: T1, Hv1 WT (Homo sapiens, UniProt Q96D96); type: cell-based; details: for IC50: IC50 ± SE, inside-out patch, +120 mV, pHin = pHout = 6.0; for Inhibition of Hv1 WT (comparison of potency): compounds tested at 50 µM, Fig. 5 E
T1 sequence (Q96D96 1-273): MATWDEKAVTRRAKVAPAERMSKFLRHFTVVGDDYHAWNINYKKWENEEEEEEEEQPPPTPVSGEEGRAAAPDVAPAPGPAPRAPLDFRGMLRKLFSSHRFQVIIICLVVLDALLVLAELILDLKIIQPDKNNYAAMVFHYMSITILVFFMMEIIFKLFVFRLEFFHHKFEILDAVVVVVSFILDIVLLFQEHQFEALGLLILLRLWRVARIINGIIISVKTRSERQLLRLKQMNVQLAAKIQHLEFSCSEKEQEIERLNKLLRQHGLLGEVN

Hv1 F150A = biological target: T2, Hv1 F150A (Homo sapiens, UniProt Q96D96, F150A); assay: Inhibition of proton currents, inside-out patch clamp, Hv1 F150A; type: cell-based
T2 sequence (Q96D96 1-273 F150A): T1 sequence (Q96D96 1-273) with F150A

[2] = Solubility in recording solution; type: physicochemical; details: concentrations >1 mM
Hv1 WT [3] = biological target: T1, Hv1 WT; details: dimeric Hv1; ref Hong et al., 2015; cited from earlier work

| Compound | IC50 (Hv1 WT [1]; Hv1 WT) [µM] | IC50 (Hv1 F150A) [µM] | other results |
| --- | --- | --- | --- |
| Nc1nc2cc(F)c(F)cc2[nH]1 [ABIF2, 5,6-difluoro-1H-1,3-benzodiazol-2-amine] | 244 ± 19 | 0.012 ± 0.001 | – |
| Nc1nc2c(F)c(F)c(F)cc2[nH]1 [ABIF3, 4,5,6-trifluoro-1H-1,3-benzodiazol-2-amine] | 699 ± 45 | 0.093 ± 0.006 | Solubility under tested conditions [2]: not soluble at higher concentrations |
| N=C(N)Nc1nc2ccccc2s1 [GBTA, 2-guanidino-benzothiazole] | – | – | Hill coefficient (Hv1 WT [3]): > 1 |
| Cc1[nH]c(N)nc1CCC(=O)c1cc(F)cc(F)c1.Cl [HIF, 3-(2-amino-5-methyl-1H-imidazol-4-yl)-1-(3,5-difluorophenyl)propan-1-one hydrochloride] | 13 ± 1 | – | IC50,HIFNF/IC50,HIF (Hv1 WT [1]; Hv1 WT): ~5.4; IC50,HIFNF/IC50,HIF (Hv1 F150A; Hv1 F150A): ~7.0 |
| Cc1[nH]c(N)nc1/C=C/C(=O)c1cc(F)cc(F)c1.Cl [HIFEN, (2E)-3-(2-amino-5-methyl-1H-imidazol-4-yl)-1-(3,5-difluorophenyl)prop-2-en-1-one hydrochloride] | – | – | h ± SE (Hill coefficient) (Hv1 WT [1]; Hv1 WT (dimeric), fit with Hill equation): ~1.5; Inhibition of Hv1 WT (comparison of potency) (Hv1 WT [1]; 50 µM): slightly more potent than HIF |
| Cc1[nH]c(N)nc1CCC(=O)c1ccccc1.Cl [HIFNF, 3-(2-amino-5-methyl-1H-imidazol-4-yl)-1-phenylpropan-1-one hydrochloride] | – | – | IC50,ABI/IC50,HIFNF (Hv1 WT [1]; Hv1 WT): ~7.7; IC50,ABI/IC50,HIFNF (Hv1 F150A; Hv1 F150A): ~0.05 |
| Cc1[nH]c(N)nc1CCC(O)c1cc(F)cc(F)c1.Cl (stereo not shown) [HIFOH, 3-(2-amino-5-methyl-1H-imidazol-4-yl)-1-(3,5-difluorophenyl)propan-1-ol hydrochloride] | – | – | Inhibition of Hv1 WT (comparison of potency) (Hv1 WT [1]): less effective at reducing the proton current than HIF, HIFNH, and HIFEN |

The next lines start with results.

| IC50 (Hv1 WT [1]; Hv1 WT) [µM] | IC50 (Hv1 F150A) [µM] | Compound | other results |
| --- | --- | --- | --- |
| 553 ± 43 | 0.018 ± 0.001 | Nc1nc2ccccc2[nH]1 [ABI, 2-aminobenzimidazole] | Inhibition of Hv1 F150A (comparison with ABTA) (Hv1 F150A; ABI at 100 nM versus ABTA at 500 nM): much larger inhibition than ABTA; Inhibition of Hv1 F150A (Hv1 F150A; at 500 nM): saturated |
| 729 ± 56 | 0.04 ± 0.001 | Nc1nc2c(F)cccc2[nH]1 [ABIFα, 4-fluoro-1H-1,3-benzodiazol-2-amine] | – |
| 312 ± 17 | 0.013 ± 0.001 | Nc1nc2cc(F)ccc2[nH]1 [ABIFβ, 6-fluoro-1H-1,3-benzodiazol-2-amine] | – |
